Results as given in patent US20020006915A1, “Use of COX-2 inhibitors to treat sepsis, complications thereof, and EP receptor modulation” (priority 2000, published 2002).
Entries after “also recorded” stand apart in the source; their conditions may differ.

What was measured:
CD14 receptor = conditions: mononuclear cells from control and injured subjects, co-culture with 100 μM PGE2
Protocol: To confirm that injury was not down regulating all circulating mononuclear cell surface receptors, the expression of the CD14 receptor, which is ubiquitous on the surface of mononuclear cells, was evaluated.

EP2 receptor = EP2 receptor expression in LPS stimulated human PBMC's via RT-PCR; type: cell-based; conditions: control PBMC's
Protocol: (§1) Serial dilutions were made to co-culture cells with a final concentration of […] NS-398 in a 0.1% DMSO. Control and trauma groups were co-cultured with 0.1% DMSO vehicle for comparisons with NS-398 treated groups.

EP4 receptor = EP4 receptor expression in LPS stimulated human PBMC's via RT-PCR; type: cell-based; conditions: control PBMC's
Protocol: as §1

[1] = exogenous PGE2 from 10^−4 μM, below 100 μM

CCCCC[C@H](O)/C=C/[C@H]1[C@H](O)CC(=O)[C@@H]1C/C=C\CCCC(=O)O [PGE2, Prostaglandin-E2]
CD14 receptor expression (CD14 receptor): did not markedly alter the levels of CD14 receptor expression
EP2 receptor expression (EP2 receptor; 100 μM exogenous PGE2): attenuated to levels below those seen in control samples; also recorded: Decreased expression
EP2 receptor expression (EP2 receptor; [1]): no change in receptor expression; also recorded: No attenuation
EP4 receptor expression (EP4 receptor; 100 μM exogenous PGE2): attenuated to levels below those seen in control samples; also recorded: Decreased expression
EP4 receptor expression (EP4 receptor; [1]): no change in receptor expression; also recorded: No attenuation
